The source of these data is patent publication US9655990B2, “Polymer based hydrogel” (YEDITEPE UNIVERSITESI, priority 2013, dated 2017).

In data set [1] the test system is superoxide dismutase. The experiment in a line: Superoxide dismutase enzyme activity assay in treated cells. It is filed as cell-based. The following applies: determined indirectly. As for the experimental part: (§1) Antioxidant parameters were determined by glutathione peroxidase and superoxide dismutase enzyme activity assay and analysis of the MDA (malondialdehyde) levels. The cells which were subjected to the gel combination, to the active agent and only to the medium for control purposes in 6-well culture plates were collected and protein isolation was performed from the cell pellet by determined by measuring absorbance and drawing a standard curve at 595 nm wavelength with Bradford solution in 96-well ELISA plates by using bovine albumin protein standards (0.125, 0.25, 0.5, 0.75, 1.0, 1.5, 2.0 mg/ml). The enzyme activity assays and MDA levels were determined such that they wilt comply with the protocols given in commercials kits (FIG. 9).

Data set [2] relates to glutathione peroxidase. The experiment in a line: Glutathione peroxidase enzyme activity assay in treated cells. It is filed as cell-based. The conditions noted are these: in comparison to the control group. The method, then:
as §1

Data set [3] relates to L929 (Mouse Fibroblast). The data set can be described thus: In vitro wound healing scratch assay, L929 cells. The class given is cell-based. As for the experimental part: (§2) In order to determine the effect of the gel on wound healing, its capacity for cell migration and wound closure was analyzed by using the scratch assay described in the literature (Walter et al. 2010). […] The cells were seeded onto 12 well culture plates at a concentration of 100,000 cells/well, and by storing them in a carbon dioxide incubator so that they were enabled to attach and reach the sufficient density. Scratches were formed by using 200 μl pipette tip such that they will be perpendicular to the horizontal lines drawn by an acetate pen from the center of the wells to the outside of the wells. Gel combination was applied on the cells and scratch closure was observed. Setrach closure (FIG. 6-7) was analyzed by using NIH Image program upon photographing the regions of the straches which correspond to the lines drawn by an acetate pen and which are in the field of view of the microscope at 0, 12 and 24 hours.

Data set [4] deals with human fibroblast cells.
Procedure: The cells were primarily stored in a chromosome dissolving solution for 2.45 hours and then in a metaphase arresting solution for 75 minutes. After the cells were collected with trypsin, they were fixed with Carney fixative, spread on glass slides, incubated at 65° C. overnight, stained with Giemsa and metaphase appearances thereof were analyzed by means of a light microscope (FIG. 10).
Data set [5] has as its system Bax and p53 genes. The experiment in a line: Real time PCR, apoptotic gene levels. The class given is cell-based. As for the experimental part: (§3) Real time PCR (Polymerase Chain Reaction) analyses were performed according to the literature by using SYBR Green method (Yalvac et al, 2010). The primers belonging to the collagen, fibronectin, laminin, Akt, Bax and P53 genes were designed using Primer BLAST software (The National Center for Biotechnology=NCBI). Total RNAs were isolated from the cells on which gel combination was applied and cDNA was synthesized. The synthesized cDNAs were mixed with primers in SYBR Green mix solution such that the final volume will be 20 μl and the expression levels of the genes (FIG. 8) were analyzed by using BIO-RAD device.
For orientation: Quantitative PCR measures a nucleic acid by following its amplification.

For data set [6], the system named is malondialdehyde. The data set can be described thus: Malondialdehyde (MDA) level in treated cells. The following applies: in comparison to the control group. It is filed as cell-based. The method, then: as §1
In data set [7] the test system is Akt gene. The experiment in a line: Real time PCR, Akt gene level. It is filed as cell-based. The method, then:
as §3

Data set [8] relates to HF (Human Fibroblast). The data set can be described thus: In vitro wound healing scratch assay, human fibroblast cells. The class given is cell-based. The method, then: as §2
Data set [9] relates to L929-HUVEC co-culture. The experiment in a line: In vitro wound healing scratch assay, L929-HUVEC co-culture. It is filed as cell-based. The method, then: as §2

On to sodium pentaborate pentahydrate, for which, in data set [1], the “superoxide dismutase enzyme activity” value is reported as “high level of enzyme activity”. For the same substance, the “glutathione peroxidase enzyme activity” value in data set [2] is on record as “substantial amount of enzyme activity”. Besides, the wound closure in data set [3] (12 hours) amounted to 71%. Also, the wound closure rate in data set [3] (24 hours) is 84%; in [8] (12 hours), 58%; in data set [8] (24 hours), 91%; in data set [9] (12 hours), 59%; in data set [9] (24 hours), 100%. Also, the karyotype result in data set [4] is reported as “maintained their normal karyotypes”. Moreover, the “apoptotic gene levels (Bax, p53)” value in data set [5] is listed as “decreased”. Further, in [6], the malondialdehyde levels result is on record as “low MDA levels”. Further, the akt gene levels result in data set [7] is “decreased”.
